Assay results published in article PMC7150766 (Viruses, 2020).

Experiments:
[1] = system: splenocytes from CVB4-infected A/J mice; experiment: Proliferative response of splenocytes from CVB4-infected mice; type: cell-based; conditions: peptide 2 days, then 3[H] thymidine 16 h, p ≤ 0.01 for VP1 721–740, Figure 6a
[2] = system: LNCs and splenocytes from immunized mice; experiment: Proliferative response, whole cells from VP1 peptide-immunized mice; type: cell-based, A/J mice

VNTFVHESLADVQA [RNase 43–56, bovine ribonuclease (RNase) 43–56, irrelevant control peptide]
Proliferative response (in words) [1]: the cells did not respond to control | Proliferative response (in words) [2]: the cells did not react to control
